In experiment [1] the target is E3 ubiquitin-protein ligase CBL-B (Homo sapiens, UniProt Q13191). The experiment is described as follows: Inhibition of N-terminal Avi-tagged human CBL-B (36 to 427 residues) incubated with 60 nM Src kinase for 1.5 hrs followed by incubation with fluorescently labeled UbcH5B-Ub for 1 hr and measured by TR-FRET assay. The format is single protein.
A short description of experiment [2]: Induction of anti-CD3/CD28 antibodies-stimulated human T cell activation at 1 uM assessed fold increase in IL-2 secretion measured by ELISA assay. The format is functional, T cell line. On the technique in general: In an ELISA, binding on a coated surface is turned into a signal by an enzyme label.
The nature of experiment [3]: Induction of anti-CD3/CD28 antibodies-stimulated human T cell activation at 0.3 uM assessed fold increase in IL-2 secretion measured by ELISA assay. The format is functional, T cell line.
Experiment [4] is described as follows: Induction of anti-CD3 antibodies-stimulated human T cell activation at 1 uM assessed fold increase in IL-2 secretion measured by ELISA assay. Further: reference of the scale not given here. Format: functional, T cell line.
Experiment [5] can be described thus: Induction of anti-CD3/CD28 antibodies-stimulated human T cell activation at 1 uM assessed fold increase in CD25 expression measured by ELISA assay. Format: functional, T cell line.
Experiment [6] can be described thus: Induction of anti-CD3/CD28 antibodies-stimulated human T cell activation at 0.3 uM assessed fold increase in CD25 expression measured by ELISA assay. The format is functional, T cell line.
Experiment [7] can be described thus: Induction of anti-CD3 antibodies-stimulated human T cell activation at 1 uM assessed fold increase in CD25 expression measured by ELISA assay. Further: reference of the scale not given here. Format: functional, T cell line.

For orientation: IC50 means the point on the concentration scale where inhibition reaches its midpoint.

E3 ubiquitin-protein ligase CBL-B, sequence (Q13191 whole entry, the tested form may be a part): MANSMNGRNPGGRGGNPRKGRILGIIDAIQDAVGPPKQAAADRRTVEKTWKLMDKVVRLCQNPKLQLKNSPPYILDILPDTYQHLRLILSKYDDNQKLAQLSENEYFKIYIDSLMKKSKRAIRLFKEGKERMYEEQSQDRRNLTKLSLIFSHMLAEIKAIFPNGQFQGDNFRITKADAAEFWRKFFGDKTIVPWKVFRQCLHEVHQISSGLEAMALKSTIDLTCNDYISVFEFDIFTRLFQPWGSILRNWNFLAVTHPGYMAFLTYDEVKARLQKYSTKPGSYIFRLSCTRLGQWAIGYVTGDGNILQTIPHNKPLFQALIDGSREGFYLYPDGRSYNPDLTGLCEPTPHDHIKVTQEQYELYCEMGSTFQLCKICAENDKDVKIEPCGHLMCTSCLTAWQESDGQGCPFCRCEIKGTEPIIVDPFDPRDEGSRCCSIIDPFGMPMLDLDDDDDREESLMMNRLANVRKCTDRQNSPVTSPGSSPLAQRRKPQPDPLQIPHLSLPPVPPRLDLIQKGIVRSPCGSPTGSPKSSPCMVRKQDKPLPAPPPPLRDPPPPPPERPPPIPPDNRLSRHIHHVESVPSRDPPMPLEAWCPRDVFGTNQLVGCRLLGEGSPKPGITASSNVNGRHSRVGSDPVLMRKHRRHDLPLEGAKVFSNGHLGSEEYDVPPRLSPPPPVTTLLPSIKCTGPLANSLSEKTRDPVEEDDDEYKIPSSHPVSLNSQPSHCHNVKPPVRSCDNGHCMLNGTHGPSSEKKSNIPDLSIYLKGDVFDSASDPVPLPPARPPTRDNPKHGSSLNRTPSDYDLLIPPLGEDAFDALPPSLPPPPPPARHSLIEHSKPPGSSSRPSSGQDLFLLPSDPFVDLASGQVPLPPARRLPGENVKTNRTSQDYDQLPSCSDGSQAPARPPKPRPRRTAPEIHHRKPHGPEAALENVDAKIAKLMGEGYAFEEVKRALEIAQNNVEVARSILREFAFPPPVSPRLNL

In turn, `Cn1cnnc1CC1(c2cccc(N3Cc4c(cc(CN5CC6CC5CO6)cc4C(F)(F)F)C3=O)c2)COC1` (centres undefined) yielded an IC50 in experiment [1] of less than 0.1 µM. The “fold change (FC)” value is on record as 5 in experiment [2]; 2.51 in experiment [3]; 0.051 in experiment [4]; 1.01 in experiment [5]; 1.01 in experiment [6]; 0.801 in experiment [7].

Consider `CN1C[C@@H]2C[C@H]1CN2c1cc2c(c(C(F)(F)F)c1)CN(c1cccc(C3(Cc4nncn4C)COC3)c1)C2=O` (single isomer, unassigned), for which the half-inhibitory concentration (IC50) in experiment [1] was less than 0.1 µM. Besides, the “fold change (FC)” value is “>=7.5” in experiment [2]; “>=7.5” in experiment [3]; “>=0.201” in experiment [4]; 1.31 in experiment [5]; 1.31 in experiment [6]; “>=1.001” in experiment [7].

For the compound `Cn1cnnc1CC1(c2cccc(N3Cc4c(cccc4C(F)(F)F)C3=O)c2)CC(F)(F)C1`, in experiment [1], the IC50 is less than 0.1 µM. The “fold change (FC)” value is 5 in experiment [2]; 2.51 in experiment [3]; “>=0.201” in experiment [4]; 1.01 in experiment [5]; 1.01 in experiment [6]; “>=1.001” in experiment [7].

Compound `Cn1cnnc1CC1(c2cccc(N3Cc4c(cc(CN5CCCc6c5cnn6C)cc4C(F)(F)F)C3=O)c2)COC1` showed an IC50 in experiment [1] of less than 0.1 µM. For the same compound, the “fold change (FC)” value in experiment [2] is reported as “>=7.5”; in experiment [3] it was 5; in experiment [4], “>=0.201”; in experiment [5], 1.01; in experiment [6], 1.01; in experiment [7], “>=1.001”.

Take `C[C@@H](c1cc2c(c(C(F)(F)F)c1)CN(c1cccc(C3(Cc4nncn4C)COC3)c1)C2=O)N1CC(C)(F)C1`: in experiment [1], the IC50 was less than 0.1 µM. The “fold change (FC)” value is “>=7.5” in experiment [2]; 2.51 in experiment [3]; “>=0.201” in experiment [4]; 1.51 in experiment [5]; 1.31 in experiment [6]; “>=1.001” in experiment [7].

Take `Cc1cc(C(=O)Nc2cccc(C(C)(C)Cc3nncn3C)c2)nc(C2CC2)n1`: the IC50 in experiment [1] was less than 0.1 µM. The “fold change (FC)” value in experiment [2] is “>=7.5”; in experiment [3] it was 5; in experiment [4] it was 0.101; in experiment [5] it was 1.31; in experiment [6], 1.31; in experiment [7], 0.801.

The compound `Cn1cnnc1CC1(c2cccc(N3Cc4c(cc(C(N5CCCC5)C(F)(F)F)cc4C(F)(F)F)C3=O)c2)COC1` (centres undefined) registered an IC50 in experiment [1] of less than 0.1 µM. The “fold change (FC)” value in experiment [2] is listed as 2.51; in experiment [3], 1.01; in experiment [4] it was 0.051; in experiment [5] it was 1.31; in experiment [6], 1.01; in experiment [7] it was 0.801.

As to `CN1C2CCC1CN(c1cc3c(c(C(F)(F)F)c1)CN(c1cccc(C4(Cc5nncn5C)COC4)c1)C3=O)C2`, the concentration for half-maximal inhibition (IC50) in experiment [1] was less than 0.1 µM. In addition, the “fold change (FC)” value in experiment [2] is recorded as 5; in experiment [3] it was 2.51; in experiment [4] it was 0.151; in experiment [5] it was 1.01; in experiment [6], 1.01; in experiment [7], “>=1.001”.

In turn, `Cn1cnnc1CC1(c2cccc(N3Cc4c(cc(C5CN6CCC5CC6)cc4C(F)(F)F)C3=O)c2)COC1` (centres undefined) registered an IC50 in experiment [1] of less than 0.1 µM. Also, the “fold change (FC)” value in experiment [2] is recorded as 5; in experiment [3] it was 2.51; in experiment [4] it was “<=0.05”; in experiment [5], 1.01; in experiment [6], 1.01; in experiment [7] it was 0.601.

Regarding `COC1CCN(Cc2cc3c(c(C(F)(F)F)c2)CN(c2cccc(C4(Cc5nncn5C)COC4)c2)C3=O)CC1`, the half-inhibitory concentration (IC50) in experiment [1] is less than 0.1 µM. For the same compound, the “fold change (FC)” value in experiment [2] was “>=7.5”; in experiment [3], “>=7.5”; in experiment [4] it was “>=0.201”; in experiment [5], 1.51; in experiment [6], 1.31; in experiment [7], “>=1.001”.

In experiment [1], `Cn1cnnc1CC1(c2cccc(N3Cc4c(cc(CN5CC[C@H](c6ccccc6)C5)cc4C(F)(F)F)C3=O)c2)COC1` returned a 50% inhibitory concentration (IC50) of less than 0.1 µM. Further, the “fold change (FC)” value in experiment [2] is recorded as “>=7.5”; in experiment [3] it was 5; in experiment [4], “>=0.201”; in experiment [5] it was 1.01; in experiment [6] it was 1.01; in experiment [7] it was “>=1.001”.

As to `Cn1cnnc1CC1(c2cccc(N3Cc4c(cc(N5CC6(C5)CC(F)(F)C6)cc4C(F)(F)F)C3=O)c2)COC1`, the IC50 in experiment [1] was less than 0.1 µM. Besides, the “fold change (FC)” value in experiment [2] is recorded as “>=7.5”; in experiment [3], 5; in experiment [4], 0.101; in experiment [5] it was 1.31; in experiment [6] it was 1.01; in experiment [7], “>=1.001”.

The compound `Cn1cnnc1C[C@]1(c2cccc(N3Cc4c(cc(CN5CCC6(CC6)C5)cc4C(F)(F)F)C3=O)c2)CCOC1` showed a half-maximal inhibitory concentration (IC50) in experiment [1] of less than 0.1 µM. The “fold change (FC)” value in experiment [2] is “>=7.5”; in experiment [3] it was “>=7.5”; in experiment [4], “>=0.201”; in experiment [5], 1.01; in experiment [6], 1.01; in experiment [7], “>=1.001”.

Regarding `C[C@H](Cc1nncn1C)c1cc(C2CC2)nc(N2Cc3c(cccc3C(F)(F)F)C2=O)c1`, the IC50 in experiment [1] was less than 0.1 µM. In addition, the “fold change (FC)” value in experiment [2] was determined as 2.51; in experiment [3], 1.01; in experiment [4], 0.101; in experiment [5], 1.01; in experiment [6], 1.01; in experiment [7], 0.801.

For the compound `Cn1cnnc1CC1(c2cccc(N3Cc4c(cc(CN5CCS(=O)(=O)CC5)cc4C(F)(F)F)C3=O)c2)COC1`, the IC50 in experiment [1] was less than 0.1 µM. Moreover, the “fold change (FC)” value in experiment [2] is on record as 2.51; in experiment [3], 2.51; in experiment [4] it was 0.101; in experiment [5] it was 1.01; in experiment [6], 1.01; in experiment [7] it was “>=1.001”.

As to `Cn1cnnc1CC1(c2cccc(N3Cc4c(cc(OC(F)F)cc4C(F)(F)F)C3=O)c2)COC1`, in experiment [1], the concentration for half-maximal inhibition (IC50) was less than 0.1 µM. Further, the “fold change (FC)” value in experiment [2] is given as 5; in experiment [3] it was 2.51; in experiment [4], 0.051; in experiment [5], 1.31; in experiment [6], 1.01; in experiment [7], 0.801.

For the compound `Cn1cnnc1CC1(c2cccc(NC(=O)c3cc(CN4CCC4)nc(C4CC4)n3)c2)COC1`, in experiment [1], the concentration for half-maximal inhibition (IC50) was less than 0.1 µM. The “fold change (FC)” value in experiment [2] is 5; in experiment [3] it was 2.51; in experiment [4], 0.051; in experiment [5] it was 1.31; in experiment [6], 1.01; in experiment [7], 0.801.

`Cn1cnnc1CC1(c2cccc(N3Cc4c(cc(CN5CC[C@@H](CO)C(F)(F)C5)cc4C(F)(F)F)C3=O)c2)COC1`: the concentration for half-maximal inhibition (IC50) in experiment [1] is less than 0.1 µM. Moreover, the “fold change (FC)” value is given as “>=7.5” in experiment [2]; 2.51 in experiment [3]; 0.101 in experiment [4]; 1.31 in experiment [5]; 1.31 in experiment [6]; 0.801 in experiment [7].

Consider `Cc1cc(C(=O)Nc2cccc(C3([C@@H](F)c4nncn4C)COC3)c2)nc(C2CC2)n1`, for which the 50% inhibitory concentration (IC50) in experiment [1] is less than 0.1 µM. Also, the “fold change (FC)” value is “>=7.5” in experiment [2]; 2.51 in experiment [3]; “>=0.201” in experiment [4]; 1.31 in experiment [5]; 1.01 in experiment [6]; “>=1.001” in experiment [7].

In experiment [1], `Cc1c[nH]nc1-c1cc([C@H](C)Cc2nncn2C)cc(N2Cc3c(cccc3C(F)(F)F)C2=O)n1` showed a 50% inhibitory concentration (IC50) not above 0.3 µM. In addition, the “fold change (FC)” value was 1.01 in experiment [2]; 1.01 in experiment [3]; 0.051 in experiment [4]; 1.01 in experiment [5]; 1.01 in experiment [6]; “<=0.6” in experiment [7].

Consider `Cn1cnnc1CC1(c2cccc(N3Cc4c(cc(N5CCOC5=O)cc4C(F)(F)F)C3=O)c2)COC1`, for which, in experiment [1], the IC50 is less than 0.1 µM. Further, the “fold change (FC)” value in experiment [2] was 2.51; in experiment [3], 1.01; in experiment [4], “<=0.05”; in experiment [5], 1.01; in experiment [6], 1.01; in experiment [7], 0.601.

In the case of `Cn1cnnc1CC1(c2cccc(N3Cc4c(cc(CN5CCC6(CC5)CC6)cc4C(F)(F)F)C3=O)c2)COC1`, in experiment [1], the IC50 is less than 0.1 µM. For the same compound, the “fold change (FC)” value was “>=7.5” in experiment [2]; “>=7.5” in experiment [3]; “>=0.201” in experiment [4]; 1.51 in experiment [5]; 1.51 in experiment [6]; “>=1.001” in experiment [7].

For the origin of these results see ChEMBL document CHEMBL5050844 (2019).
